Data as given in patent publication US20030181408A1, “Genes essential for microbial proliferation and antisense thereto” (priority 1999, published 2003).
≈ marks a conversion by molar mass, not a printed value.

Assays:
[1] = tested on: bacterial strain engineered for expression of an antisense against rplL and rplJ (50S ribosomal subunit proteins); test: microbe, parasite or virus in culture; format: cell-based, E. coli; settings: read-out: IC50 (+I)
Procedure: Antibiotics of various chemical classes and modes of action were purchased from Sigma Chemicals (St. Louis, Mo.). Stock solutions were prepared by dissolving each antibiotic in an appropriate aqueous solution based on information provided by the manufacturer. The final working solution of each antibiotic contained no more than 0.2% (w/v) of any organic solvent. To determine their potency against a bacterial strain engineered for expression of an antisense against a proliferation-required gene encoding 50S ribosomal protein, each antibiotic was serially diluted two or three fold in growth medium supplemented with the appropriate antibiotic for maintenance of the anti-sense construct. At least ten dilutions were prepared for each antibiotic. 25 μL aliquots of each dilution were transferred to discrete wells of a 384-well microplate (the assay plate) using a multi-channel pipette. Quadruplicate wells were used for each dilution of an antibiotic under each treatment condition (plus and minus inducer). Each assay plate contained twenty wells for cell growth controls (growth media replacing antibiotic), ten wells for each treatment (plus and minus inducer, in this example IPTG). Assay plates were usually divided into the two treatments: half the plate containing induced cells and an appropriate concentrations of inducer (in this example IPTG) to maintain the state of induction, the other half containing non-induced cells in the absence of IPTG.
Cells for the assay were prepared as follows. Bacterial cells containing a construct, from which expression of antisense nucleic acid against rplL and rplJ, which encode proliferation-required 50S ribosomal subunit proteins, is inducible in the presence of IPTG, were grown into exponential growth (OD600 0.2 to 0.3) and then diluted 1:100 into fresh media containing either 400 μM or 0 μM inducer (IPTG). These cultures were incubated at 37° C. for 2.5 hr. After a 2.5 hr incubation, induced and non-induced cells were respectively diluted into an assay medium at a final OD600 value of 0.0004. The medium contained an appropriate concentration of the antibiotic for the maintenance of the anti-sense construct. In addition, the medium used to dilute induced cells was supplemented with 800 μM IPTG so that addition to the assay plate would result in a final IPTG concentration of 400 μM. Induced and non-induced cell suspensions were dispensed (25 μl/well) into the appropriate wells of the assay plate as discussed previously. The plate was then loaded into a plate reader, incubated at constant temperature, and cell growth was monitored in each well by the measurement of light scattering at 595 nm. Growth was monitored every 5 minutes until the cell culture attained a stationary growth phase. For each concentration of antibiotic, a percentage inhibition of growth was calculated at the time point corresponding to mid-exponential growth for the associated control wells (no antibiotic, plus or minus IPTG). For each antibiotic and condition (plus or minus IPTG), a plot of percent inhibition versus log of antibiotic concentration was generated and the IC50 determined.

[2] = tested on: E. coli transformed with an IPTG-inducible plasmid containing antisense clones; test: Cell based assay: antibiotic sensitivity of E. coli expressing sublethal antisense RNA (Example 9)
From the text: The effectiveness of the above cell based assay was validated using constructs expressing antisense RNA to the proliferation required E. coli genes rplL, rplJ, and rplW encoding ribosomal proteins L7/L12, L10 and L23 respectively. These proteins are part of the protein synthesis apparatus of the cell and as such are required for proliferation. These constructs were used to test the effect of antisense expression on cell sensitivity to antibiotics known to bind to the ribosome and thereby inhibit protein synthesis. Constructs expressing antisense RNA to several other genes (elaD, visC, yohh, and atpE/B), the products of which are not involved in protein synthesis were used for comparison.
First pLex5BA (Krause et al., J. Mol. Biol. 274: 365 (1997), the disclosure of which is incorporated herein by reference in its entirety) expression vectors containing antisense constructs to either rplW or to elaD were introduced into separate E. coli cell populations. Vector introduction is a technique well known to those of ordinary skill in the art. The expression vectors of this example contain IPTG inducible promoters that drive the expression of the antisense RNA in the presence of the inducer. However, those skilled in the art will appreciate that other inducible promoters may also be used. Suitable expression vectors are also well known in the art. The E. coli antisense clones encoding ribosomal proteins L7/L12, L10 and L23 were used to test the effect of antisense expression on cell sensitivity to the antibiotics known to bind to these proteins. […]
The cell populations were exposed to a range of IPTG concentrations in liquid medium to obtain the growth inhibitory dose curve for each clone (FIG. 1). First, seed cultures were grown to a particular turbidity that is measured by the optical density (OD) of the growth solution. […] The cells were grown for up to 15 hours and the extent of growth was determined by measuring the optical density of the cultures at 600 nm. […]

Enterobacter cloacae = test: Growth inhibition by IPTG-induced antisense RNA expression in Enterobacter cloacae (induced vs. uninduced serial dilution plating); format: cell-based
Procedure: (§1) To study the effects of transcriptional induction in liquid medium, growth curves were carried out by back diluting cultures 1:200 into fresh media with or without 1 mM IPTG and measuring the OD450 every 30 minutes (min). To study the effects of transcriptional induction on solid medium, 10^2, 10^3, 10^4, 10^5, 10^6, 10^7 and 10^8 fold dilutions of overnight cultures were prepared. Aliquots of from 0.5 to 3 μl of these dilutions were spotted on selective agar plates with or without 1 mM IPTG. After overnight incubation, the plates were compared to assess the sensitivity of the clones to IPTG.
(§2) Molecule No. EcXA059, encoding a portion of the ypjA gene of Escherichia coli, was either transformed directly into Enterobacter cloacae, Salmonella typhimurium and/or Klebsiella pneumoniae or subdloned into an expression vector functional in these species and the subclones transformed into these organisms. Suitable expression vectors are well known in the art. These expression vectors were introduced into Enterobacter cloacae, Salmonella typhimurium and/or Klebsiella pneumoniae cells that were then assayed for growth inhibition according to the method of Example 1. After growth in liquid culture, cells were plated at various serial dilutions and a score determined by calculating the log difference in growth for INDUCED vs. UNINDUCED antisense RNA expression as determined by the maximum 10 fold dilution at which a colony was observed. If there was no effect of antisense RNA expression in one organism, the clone is given a score of zero “0” in that organism. In contrast, a score of “8” means that 10^8 times more cells were required to observe a colony formed on the induced state than in the non-induced state under the conditions used and in that organism.
(§3) Expression vectors which inhibited growth of E. coli upon induction of antisense RNA expression with IPTG were transformed directly into Enterobacter cloacae, Klebsiella pneumonia or Salmonella typhimurium. The transformed cells were then assayed for growth inhibition according to the method of Example 1. After growth in liquid culture, cells were plated at various serial dilutions and a score determined by calculating the log difference in growth for INDUCED vs. UNINDUCED antisense RNA expression as determined by the maximum 10 fold dilution at which a colony was observed. If there was no effect of antisense RNA expression in a microorganism, the clone is minus in Table V below. In contrast, a positive in Table V below means that at least 10 fold more cells were required to observe a colony on the induced plate than on the non-induced plate under the conditions used and in that microorganism.

Klebsiella pneumoniae = test: Growth inhibition by IPTG-induced antisense RNA expression in Klebsiella pneumoniae (induced vs. uninduced serial dilution plating); format: cell-based
Procedure: as §1, §2, §3

E. coli = test: Inhibition of E. coli proliferation after IPTG induction of antisense clones (liquid growth curves, dilution spotting on plates); format: cell-based, Escherichia coli; settings: 1 mM IPTG
Procedure: as §1, §2

Salmonella typhimurium = test: Growth inhibition by IPTG-induced antisense RNA expression in Salmonella typhimurium (induced vs. uninduced serial dilution plating); format: cell-based
Procedure: as §1, §2, §3

CC1COc2c(N3CCN(C)CC3)c(F)cc3c(=O)c(C(=O)O)cn1c23 (centres unmarked) [Ofloxacin]
IC50 [1]: 0.0458 µg/mL (≈ 0.127 µM) | sensitivity to antibiotics which do not inhibit protein synthesis ([2]; clone expressing antisense to rplL and rplJ): does not show increased sensitivity

CN(C)[C@@H]1C(O)=C(C(N)=O)C(=O)[C@@]2(O)C(O)=C3C(=O)c4c(O)cccc4[C@@](C)(O)[C@H]3C[C@@H]12 [Tetracycline]
sensitivity to tetracycline (tetracycline IC50 with IPTG vs. without IPTG) ([2]; cells expressing antisense to genes not involved in protein synthesis (atpB/E, visC, elaD, yohH)): did not show the same increased sensitivity | sensitivity to tetracycline (tetracycline IC50 with IPTG vs. without IPTG) ([2]; cells with reduced levels of L7/L12 (rplL, rplJ) or L23 (rplW), IPTG giving 50% growth inhibition): increased sensitivity

B1: EcXA083: antisense clone insert, E. coli gene hrpB (nucleic acid, listed as Escherichia coli)
DNA: CGGCTTAGCGCGTCGTTGGCATCGAGCATCGCTCCCATGCCGTTTGCCAGTTGATAGCGTCCATCTTGCC
Sensitivity of E. cloacae to antisense nucleic acid (growth inhibition, induced vs. uninduced) (Enterobacter cloacae): − | Sensitivity of K. pneumoniae to antisense nucleic acid (growth inhibition, induced vs. uninduced) (Klebsiella pneumoniae): − | effect of antisense expression on E. coli growth after IPTG induction (E. coli): reduction in cell growth | Sensitivity of S. typhimurium to antisense nucleic acid (growth inhibition, induced vs. uninduced) (Salmonella typhimurium): −
